Key:
[1] = target: Rho-associated protein kinase 1 (Homo sapiens) (UniProt Q13464); assay: Residual activity of ROCK1 at 0.1 uM by microplate scintillation counting
[2] = target: Calcium/calmodulin-dependent protein kinase type II subunit alpha (Homo sapiens) (UniProt Q9UQM7); assay: Residual activity of CAMK2A at 1 uM by microplate scintillation counting
[3] = target: Dual specificity tyrosine-phosphorylation-regulated kinase 1A (Homo sapiens) (UniProt Q13627); assay: Residual activity of DYRK1A at 10 uM by microplate scintillation counting
[4] = target: T1, Calcium/calmodulin-dependent protein kinase type IV (Homo sapiens) (UniProt Q16566); assay: Residual activity of CAMK4 at 0.1 uM by microplate scintillation counting
T1 sequence (whole entry): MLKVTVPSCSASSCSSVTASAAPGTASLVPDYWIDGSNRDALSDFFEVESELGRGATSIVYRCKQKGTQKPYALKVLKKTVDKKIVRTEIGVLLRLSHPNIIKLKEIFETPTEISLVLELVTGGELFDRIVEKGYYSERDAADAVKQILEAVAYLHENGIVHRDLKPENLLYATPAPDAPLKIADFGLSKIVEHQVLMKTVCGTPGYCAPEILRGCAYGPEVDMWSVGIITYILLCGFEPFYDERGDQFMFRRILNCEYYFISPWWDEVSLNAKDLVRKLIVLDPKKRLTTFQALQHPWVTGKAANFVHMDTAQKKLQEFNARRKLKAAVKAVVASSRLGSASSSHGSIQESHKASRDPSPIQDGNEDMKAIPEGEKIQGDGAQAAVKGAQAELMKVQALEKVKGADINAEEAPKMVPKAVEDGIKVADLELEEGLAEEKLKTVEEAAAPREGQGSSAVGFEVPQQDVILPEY

[5] = target: Tyrosine-protein kinase Lyn (Homo sapiens) (UniProt P07948); assay: Residual activity of LYN at 1 uM by microplate scintillation counting
Sequence of Tyrosine-protein kinase Lyn (Homo sapiens) (P07948 2-512 limits assumed): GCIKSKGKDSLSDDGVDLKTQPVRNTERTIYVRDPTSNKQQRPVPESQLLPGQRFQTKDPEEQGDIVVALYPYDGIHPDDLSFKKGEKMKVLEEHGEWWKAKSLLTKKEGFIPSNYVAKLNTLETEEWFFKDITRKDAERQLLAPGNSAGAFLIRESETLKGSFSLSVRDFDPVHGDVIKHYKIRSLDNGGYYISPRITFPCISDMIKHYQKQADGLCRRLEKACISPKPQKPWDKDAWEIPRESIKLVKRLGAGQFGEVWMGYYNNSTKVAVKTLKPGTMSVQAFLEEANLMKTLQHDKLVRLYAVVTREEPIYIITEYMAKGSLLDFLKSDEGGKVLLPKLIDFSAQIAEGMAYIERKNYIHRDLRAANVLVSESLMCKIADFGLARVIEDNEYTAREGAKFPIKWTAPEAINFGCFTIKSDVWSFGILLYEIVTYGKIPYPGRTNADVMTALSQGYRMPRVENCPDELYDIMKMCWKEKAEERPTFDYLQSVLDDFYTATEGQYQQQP

[6] = target: SRSF protein kinase 3 (Homo sapiens) (UniProt Q9UPE1); assay: Residual activity of STK23 at 1 uM by microplate scintillation counting
Sequence of SRSF protein kinase 3 (Homo sapiens) (Q9UPE1 whole entry): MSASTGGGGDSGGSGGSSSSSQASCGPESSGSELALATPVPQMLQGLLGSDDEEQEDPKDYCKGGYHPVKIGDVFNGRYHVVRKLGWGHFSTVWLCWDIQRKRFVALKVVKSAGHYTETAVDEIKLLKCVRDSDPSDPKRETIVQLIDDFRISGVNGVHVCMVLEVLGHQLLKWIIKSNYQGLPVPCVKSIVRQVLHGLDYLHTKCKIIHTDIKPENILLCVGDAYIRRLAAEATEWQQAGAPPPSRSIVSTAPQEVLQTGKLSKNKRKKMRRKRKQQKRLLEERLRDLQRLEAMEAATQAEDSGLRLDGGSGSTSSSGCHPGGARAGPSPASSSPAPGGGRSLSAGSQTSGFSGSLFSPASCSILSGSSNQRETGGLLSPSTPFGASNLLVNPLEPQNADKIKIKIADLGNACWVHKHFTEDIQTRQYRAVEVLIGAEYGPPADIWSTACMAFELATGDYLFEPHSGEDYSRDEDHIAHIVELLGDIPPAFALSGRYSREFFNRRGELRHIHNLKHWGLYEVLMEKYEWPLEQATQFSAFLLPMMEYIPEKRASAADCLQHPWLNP

[7] = target: T2, Cytoplasmic tyrosine-protein kinase BMX (Homo sapiens) (UniProt P51813); assay: Residual activity of BMX at 10 uM by microplate scintillation counting
T2 sequence (whole entry): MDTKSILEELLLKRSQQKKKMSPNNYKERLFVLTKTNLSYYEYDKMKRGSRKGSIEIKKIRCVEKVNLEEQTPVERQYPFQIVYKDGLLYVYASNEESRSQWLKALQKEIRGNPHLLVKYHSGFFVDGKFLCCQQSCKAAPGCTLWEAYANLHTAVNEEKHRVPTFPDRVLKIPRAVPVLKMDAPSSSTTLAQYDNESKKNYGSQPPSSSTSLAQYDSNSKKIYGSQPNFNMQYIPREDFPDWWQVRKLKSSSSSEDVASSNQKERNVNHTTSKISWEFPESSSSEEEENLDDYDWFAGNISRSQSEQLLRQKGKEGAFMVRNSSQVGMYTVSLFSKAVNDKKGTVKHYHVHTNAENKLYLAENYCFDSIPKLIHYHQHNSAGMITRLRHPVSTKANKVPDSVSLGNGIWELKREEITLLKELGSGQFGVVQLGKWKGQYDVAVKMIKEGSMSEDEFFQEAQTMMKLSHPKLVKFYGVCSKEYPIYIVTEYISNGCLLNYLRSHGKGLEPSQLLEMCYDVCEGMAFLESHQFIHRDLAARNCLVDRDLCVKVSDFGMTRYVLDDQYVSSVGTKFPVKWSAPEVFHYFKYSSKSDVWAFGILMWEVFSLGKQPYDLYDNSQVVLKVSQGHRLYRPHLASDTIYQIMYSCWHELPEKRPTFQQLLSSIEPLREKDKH

[8] = target: Hepatocyte growth factor receptor (Homo sapiens) (UniProt P08581); assay: Residual activity of MET at 10 uM by microplate scintillation counting
Sequence of Hepatocyte growth factor receptor (Homo sapiens) (P08581 whole entry): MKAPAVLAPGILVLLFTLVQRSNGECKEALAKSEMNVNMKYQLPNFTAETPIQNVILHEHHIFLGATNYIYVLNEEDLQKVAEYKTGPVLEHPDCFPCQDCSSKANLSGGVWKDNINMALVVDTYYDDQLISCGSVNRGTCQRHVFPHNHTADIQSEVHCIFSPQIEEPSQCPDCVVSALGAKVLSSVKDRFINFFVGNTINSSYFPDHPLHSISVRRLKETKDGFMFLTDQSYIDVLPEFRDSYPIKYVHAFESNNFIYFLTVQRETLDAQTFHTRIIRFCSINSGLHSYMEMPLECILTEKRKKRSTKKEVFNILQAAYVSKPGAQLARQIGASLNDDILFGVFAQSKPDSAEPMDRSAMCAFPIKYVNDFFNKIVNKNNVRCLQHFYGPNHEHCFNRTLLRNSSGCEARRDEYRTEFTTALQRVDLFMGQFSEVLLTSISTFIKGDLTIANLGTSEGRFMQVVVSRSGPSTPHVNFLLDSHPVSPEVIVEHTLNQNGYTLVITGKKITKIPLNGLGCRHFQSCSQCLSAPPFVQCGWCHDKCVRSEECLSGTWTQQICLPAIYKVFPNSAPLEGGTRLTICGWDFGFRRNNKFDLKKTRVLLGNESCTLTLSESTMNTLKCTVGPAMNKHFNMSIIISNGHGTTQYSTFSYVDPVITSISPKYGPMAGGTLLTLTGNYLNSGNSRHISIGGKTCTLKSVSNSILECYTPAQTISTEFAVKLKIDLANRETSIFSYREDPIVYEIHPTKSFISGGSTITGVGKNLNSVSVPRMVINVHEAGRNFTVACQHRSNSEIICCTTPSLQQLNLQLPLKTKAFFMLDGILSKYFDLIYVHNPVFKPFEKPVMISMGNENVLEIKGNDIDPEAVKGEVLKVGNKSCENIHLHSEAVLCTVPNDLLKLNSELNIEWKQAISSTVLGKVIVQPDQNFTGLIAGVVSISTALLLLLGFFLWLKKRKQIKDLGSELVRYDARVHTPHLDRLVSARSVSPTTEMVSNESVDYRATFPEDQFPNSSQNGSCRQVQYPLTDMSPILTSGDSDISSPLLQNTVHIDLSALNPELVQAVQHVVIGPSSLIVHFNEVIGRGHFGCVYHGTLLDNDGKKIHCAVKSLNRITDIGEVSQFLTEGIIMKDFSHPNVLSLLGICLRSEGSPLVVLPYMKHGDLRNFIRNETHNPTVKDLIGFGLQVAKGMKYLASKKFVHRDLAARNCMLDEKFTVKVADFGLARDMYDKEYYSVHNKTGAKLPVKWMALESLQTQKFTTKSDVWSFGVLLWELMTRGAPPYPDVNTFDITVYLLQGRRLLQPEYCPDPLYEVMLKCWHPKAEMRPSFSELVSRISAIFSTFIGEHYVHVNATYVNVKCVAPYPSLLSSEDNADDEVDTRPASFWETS

[9] = target: T3, Serine/threonine-protein kinase BRSK1 (Homo sapiens) (UniProt Q8TDC3); assay: Residual activity of BRSK1 at 1 uM by microplate scintillation counting
T3 sequence (whole entry): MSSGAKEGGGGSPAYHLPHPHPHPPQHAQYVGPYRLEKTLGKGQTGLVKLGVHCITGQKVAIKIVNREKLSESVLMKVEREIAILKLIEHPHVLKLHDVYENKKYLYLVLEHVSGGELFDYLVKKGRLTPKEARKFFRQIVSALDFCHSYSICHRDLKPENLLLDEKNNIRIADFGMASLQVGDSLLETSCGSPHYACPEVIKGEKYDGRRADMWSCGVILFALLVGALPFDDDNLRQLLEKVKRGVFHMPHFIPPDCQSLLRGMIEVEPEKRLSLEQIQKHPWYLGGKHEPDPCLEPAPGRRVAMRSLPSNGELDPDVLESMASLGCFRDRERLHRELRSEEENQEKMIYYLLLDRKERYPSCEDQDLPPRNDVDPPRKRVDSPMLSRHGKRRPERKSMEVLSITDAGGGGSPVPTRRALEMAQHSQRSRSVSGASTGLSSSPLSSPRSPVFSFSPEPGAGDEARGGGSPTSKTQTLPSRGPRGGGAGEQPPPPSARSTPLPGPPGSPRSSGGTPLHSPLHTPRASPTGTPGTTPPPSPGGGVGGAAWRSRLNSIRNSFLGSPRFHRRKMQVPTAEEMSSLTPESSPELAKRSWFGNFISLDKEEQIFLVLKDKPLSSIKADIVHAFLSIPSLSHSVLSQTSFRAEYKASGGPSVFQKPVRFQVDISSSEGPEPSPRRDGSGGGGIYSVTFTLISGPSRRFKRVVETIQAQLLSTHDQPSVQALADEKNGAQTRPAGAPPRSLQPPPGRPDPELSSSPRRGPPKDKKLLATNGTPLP

[10] = target: Receptor-interacting serine/threonine-protein kinase 2 (Homo sapiens) (UniProt O43353); assay: Residual activity of RIPK2 at 0.1 uM by microplate scintillation counting
[11] = target: Mitogen-activated protein kinase 10 (Homo sapiens) (UniProt P53779); assay: Residual activity of JNK3 at 10 uM by microplate scintillation counting
Sequence of Mitogen-activated protein kinase 10 (Homo sapiens) (P53779 whole entry): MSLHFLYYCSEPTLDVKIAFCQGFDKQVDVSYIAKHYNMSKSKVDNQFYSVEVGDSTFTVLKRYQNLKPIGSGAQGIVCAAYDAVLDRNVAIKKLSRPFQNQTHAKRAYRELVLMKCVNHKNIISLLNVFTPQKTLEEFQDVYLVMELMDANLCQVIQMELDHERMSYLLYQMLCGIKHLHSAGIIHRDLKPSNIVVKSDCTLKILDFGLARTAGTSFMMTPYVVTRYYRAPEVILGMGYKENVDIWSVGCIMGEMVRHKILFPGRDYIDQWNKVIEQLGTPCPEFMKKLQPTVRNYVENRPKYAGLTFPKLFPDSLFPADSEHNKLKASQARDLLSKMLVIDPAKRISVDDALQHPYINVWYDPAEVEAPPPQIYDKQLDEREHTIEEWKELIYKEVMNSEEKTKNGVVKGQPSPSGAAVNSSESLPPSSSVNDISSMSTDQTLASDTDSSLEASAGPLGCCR

Sequence of Calcium/calmodulin-dependent protein kinase type II subunit alpha (Homo sapiens) (Q9UQM7 whole entry): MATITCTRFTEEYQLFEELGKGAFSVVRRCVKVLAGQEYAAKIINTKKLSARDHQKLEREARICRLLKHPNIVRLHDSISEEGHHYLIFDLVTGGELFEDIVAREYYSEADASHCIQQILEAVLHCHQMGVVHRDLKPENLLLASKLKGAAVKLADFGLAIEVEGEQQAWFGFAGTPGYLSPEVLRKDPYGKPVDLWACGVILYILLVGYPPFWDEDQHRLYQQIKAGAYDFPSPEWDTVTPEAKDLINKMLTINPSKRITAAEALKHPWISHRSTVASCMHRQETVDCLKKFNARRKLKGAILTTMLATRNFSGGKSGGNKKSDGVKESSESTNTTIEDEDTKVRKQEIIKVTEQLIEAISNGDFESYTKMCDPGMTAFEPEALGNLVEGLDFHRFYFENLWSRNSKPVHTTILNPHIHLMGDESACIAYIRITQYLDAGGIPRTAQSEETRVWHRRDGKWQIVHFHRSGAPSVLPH
Sequence of Rho-associated protein kinase 1 (Homo sapiens) (Q13464 2-1354 limits assumed): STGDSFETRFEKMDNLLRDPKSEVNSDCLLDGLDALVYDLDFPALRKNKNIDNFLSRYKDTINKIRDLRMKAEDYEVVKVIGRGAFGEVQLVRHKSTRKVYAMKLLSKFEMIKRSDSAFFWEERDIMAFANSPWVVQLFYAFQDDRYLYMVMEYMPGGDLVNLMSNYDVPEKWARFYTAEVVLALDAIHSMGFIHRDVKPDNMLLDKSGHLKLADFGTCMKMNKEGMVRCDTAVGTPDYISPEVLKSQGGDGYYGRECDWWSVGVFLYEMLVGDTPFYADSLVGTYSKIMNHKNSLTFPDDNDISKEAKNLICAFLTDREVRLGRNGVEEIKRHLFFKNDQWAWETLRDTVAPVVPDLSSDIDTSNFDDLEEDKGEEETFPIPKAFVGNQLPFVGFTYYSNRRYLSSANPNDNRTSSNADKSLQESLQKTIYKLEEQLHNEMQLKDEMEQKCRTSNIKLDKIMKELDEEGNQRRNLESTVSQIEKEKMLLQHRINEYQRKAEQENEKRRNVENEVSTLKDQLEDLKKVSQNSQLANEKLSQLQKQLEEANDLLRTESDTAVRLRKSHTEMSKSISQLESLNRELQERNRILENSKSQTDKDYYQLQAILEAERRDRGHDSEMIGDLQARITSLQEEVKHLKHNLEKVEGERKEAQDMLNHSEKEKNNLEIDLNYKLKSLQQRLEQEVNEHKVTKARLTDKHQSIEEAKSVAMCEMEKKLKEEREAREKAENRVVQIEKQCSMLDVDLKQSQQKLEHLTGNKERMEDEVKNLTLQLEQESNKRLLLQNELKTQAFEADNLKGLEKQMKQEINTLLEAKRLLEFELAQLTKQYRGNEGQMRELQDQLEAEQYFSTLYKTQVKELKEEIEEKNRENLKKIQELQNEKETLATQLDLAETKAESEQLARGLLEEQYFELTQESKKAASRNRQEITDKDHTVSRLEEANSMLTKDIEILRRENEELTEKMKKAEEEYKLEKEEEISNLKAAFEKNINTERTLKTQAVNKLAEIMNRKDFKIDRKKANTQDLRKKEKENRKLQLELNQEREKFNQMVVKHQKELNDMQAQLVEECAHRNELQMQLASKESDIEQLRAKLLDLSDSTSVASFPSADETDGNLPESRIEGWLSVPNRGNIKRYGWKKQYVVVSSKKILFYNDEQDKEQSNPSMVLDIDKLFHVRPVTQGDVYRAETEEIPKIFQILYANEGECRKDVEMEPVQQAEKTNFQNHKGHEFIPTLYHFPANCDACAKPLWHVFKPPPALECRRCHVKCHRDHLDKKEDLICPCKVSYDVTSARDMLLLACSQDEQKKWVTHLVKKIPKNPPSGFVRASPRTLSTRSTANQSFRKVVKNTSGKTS

| residual activity [1] [%] | residual activity [2] [%] | residual activity [3] [%] | residual activity [4] [%] | residual activity [5] [%] | residual activity [6] [%] | residual activity [7] [%] | residual activity [8] [%] | residual activity [9] [%] | residual activity [10] [%] | residual activity [11] [%] | Compound |
| --- | --- | --- | --- | --- | --- | --- | --- | --- | --- | --- | --- |
| 96 | 81 | 89 | 102 | 119 | 83 | 138 | 17 | 91 | 79 | 84 | COc1cc2c(Oc3ccc(-c4nc5ccccc5s4)cc3)ncnc2cc1OCCCN1CCCC1 |
| 98 | 69 | 103 | 96 | 104 | 95 | 156 | 12 | 91 | 78 | 52 | COc1cc2c(Oc3ccc(-c4nc5ccccc5s4)cc3)ncnc2cc1OCCCN1CCN(C)CC1 |
| 101 | 83 | 101 | 97 | 93 | 87 | 44 | 8 | 91 | 72 | 45 | COc1cc2c(Oc3ccc(-c4nc5ccccc5s4)cc3F)ncnc2cc1OCCCN1CCN(C)CC1 |

From ChEMBL document CHEMBL1152560, “Substituted 2-arylbenzothiazoles as kinase inhibitors: hit-to-lead optimization” (Bioorg Med Chem, 2009)
